Assay results from patent US5182284A, “Piperazine compounds, processes for preparation thereof and medical uses thereof” (Taiho Pharmaceutical Co., Ltd., priority 1990, dated 1993).

Assays:
[1] = biological target: Cyclooxygenase; test: Cyclooxygenase inhibitory effect; format: biochemical; conditions: seminal vesicular gland microsomes, 14C-arachidonic acid, prostaglandin E2 formation
Method: (1) Cyclooxygenase inhibitory effect
The assay was carried out by the method described in Biochem. Pharmacol. 25, 2479-2484 (1976).
^14 C-Arachidonic acid was reacted with seminal vesicular gland microsomes and the test drugs at various concentrations over a predetermined period of time and the obtained prostaglandin E2 was separated by thin-layer chromatography. The radioactivity was determined by liquid scintillation counter. The IC50 values were calculated by the comparison with the radioactivity of the control.

[2] = biological target: T1, 5-Lipoxygenase (Cavia porcellus, UniProt A0A286X958); test: 5-Lipoxygenase inhibitory effect; format: biochemical; conditions: cytosol fraction of guinea pig polymorphonuclear leukocytes, 14C-arachidonic acid, 5-hydroxyeicosatetraenoic acid formation
T1 construct: the polymorphonuclear leukocytes were collected and the cytosol fraction was obtained as an enzyme source; endogenous in cells; host or cells: guinea pig peritoneal polymorphonuclear leukocytes (casein-elicited), cytosol fraction
T1 sequence (A0A286X958 1-674): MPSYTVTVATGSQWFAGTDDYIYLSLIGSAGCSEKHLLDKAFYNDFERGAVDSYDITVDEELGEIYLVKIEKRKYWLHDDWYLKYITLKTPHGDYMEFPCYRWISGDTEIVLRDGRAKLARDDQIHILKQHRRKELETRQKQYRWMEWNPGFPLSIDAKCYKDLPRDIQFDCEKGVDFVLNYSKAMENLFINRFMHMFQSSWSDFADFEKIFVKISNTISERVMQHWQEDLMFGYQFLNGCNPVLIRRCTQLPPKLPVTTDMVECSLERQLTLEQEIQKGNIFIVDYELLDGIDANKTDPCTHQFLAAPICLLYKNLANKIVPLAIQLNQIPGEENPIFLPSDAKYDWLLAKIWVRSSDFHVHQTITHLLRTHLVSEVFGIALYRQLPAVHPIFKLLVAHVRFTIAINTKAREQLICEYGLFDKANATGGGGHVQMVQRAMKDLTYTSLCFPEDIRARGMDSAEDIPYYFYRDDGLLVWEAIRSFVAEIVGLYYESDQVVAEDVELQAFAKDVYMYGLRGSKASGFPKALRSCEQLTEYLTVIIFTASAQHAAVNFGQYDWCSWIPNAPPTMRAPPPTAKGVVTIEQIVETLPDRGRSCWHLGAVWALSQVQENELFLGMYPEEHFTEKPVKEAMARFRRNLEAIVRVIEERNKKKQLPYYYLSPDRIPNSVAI
Method: 2) 5-Lipoxygenase inhibitory effect
The assay was carried out by the method described in Journal of Biological Chemistry 258, 5754-5758 (1983) Casein was injected into the abdominal cavity of a guinea pig, and the polymorphonuclear leukocytes were collected and the cytosol fraction was obtained as an enzyme source. ^14 C-Arachidonic acid was reacted with the enzyme and the test drugs at various concentrations over a predetermined period of time. The obtained 5-hydroxyeicosatetraenoic acid was separated by thin-layer chromatography and the radioactivity was determined. By the comparison with the radioactivity of the control, the IC50 values were calculated.

[3] = system: contraction of respiratory tract; test: Effect on allergic asthma (airway resistance after ovalbumin challenge in passively sensitized guinea pigs); format: in vivo, guinea pig (Hartley); conditions: mean ± standard error, oral, 100 mg in 5 ml, 5 ml/kg, 2 hours before challenge, ovalbumin i.v., diphenhydramine, propranolol and indomethacin pretreatment
Method: 3. Effect on allergic asthma
To a guinea pig (Hartley, 350 to 400 g, male) was administered 0.5 ml/kg of a guinea pig anti-ovalbumin IgE serum for passive sensitization. Two days later, the guinea pig was anesthetized with pentobarbital (70 mg/kg) and a cannula and a catheter were each inserted into the trachea and a carotid artery, respectively. Further, the spontaneous respiration of the guinea pig was stopped with use of 0.5 mg/kg of pancuronium bromide and artificial respiration was conducted (100% oxygen at 1 kgf/cm^2, respirator: EVM-50A (manufactured by AIKA Co., Ltd.), predetermined flow rate of oxygen: 0.45 l/min, number of respiration: 40 times/min, time for inspiration: 0.25 sec/respiration). The measurement for contraction of respiratory tract was carried out by modified Konzett and Rossler method. A 100 mg quantity of the compound of the present invention was suspended in 5 ml of a 5% Tween-80-phosphate buffered physiological saline solution (pH 6.8). Two hours before the challenge, the test drug was orally administered in a volume of 5 ml/kg. The same quantity of the solvent alone was orally administered to a control group. Further, 2.5 mg/kg of diphenhydramine, 0.05 mg/kg of propranolol and 5 mg/kg of indomethacin were intravenously administered 5 minutes before the challenge. A 22.5 to 35 μg/kg quantity of ovalbumin was intravenously administered and the contraction of respiratory tract was measured as airway resistance with use of a pressure transducer. The maximum airway resistance was taken as 100%, and the change in the airway resistance caused a predetermined period of time after the challenge was shown as the ratio relative to the maximum airway resistance.

Compound	IC50 [1] [nM]	IC50 [2] [nM]	Airway resistance (ratio relative to the maximum airway resistance) ([3]; 3 minutes after challenge, control 41.9 ± 7.0) [%]	Airway resistance (ratio relative to the maximum airway resistance) ([3]; 8 minutes after challenge, control 79.5 ± 5.4) [%]	Airway resistance (ratio relative to the maximum airway resistance) ([3]; 16 minutes after challenge, control 75.3 ± 5.8) [%]
O=C(Cc1ccc(O)c(O)c1)OC(CN1CCN(CCCCCCCCCCO)CC1)c1ccccc1 (stereo not drawn) [Compound 8]	9900	320	–	–	–
O=C(/C=C/c1ccc(O)c(O)c1)OC(CN1CCN(CCCCCCCCCCO)CC1)c1ccc(Cl)cc1 (stereo not drawn) [Compound 15]	3400	90	–	–	–
CCCCCCCCCCN1CCN(CC(OC(=O)/C=C/c2ccc(O)c(O)c2)c2ccccc2)CC1 (stereo not drawn) [Compound 19]	4300	80	–	–	–
CCCCCCCCCCN1CCN(C(=O)CNC(=O)/C=C/c2ccc(O)c(O)c2)CC1 [Compound 23]	4200	40	–	–	–
CCCCCCCCCCN1CCN(C(=O)/C=C/c2ccc(O)c(O)c2)CC1 [Compound 35]	8400	40	–	–	–
CCCCCCCCN1CCN(C(=O)/C=C/c2ccc(O)c(O)c2)CC1 [Compound 36]	2900	120	–	–	–
CCCCCCCCCCN1CCN(C(=O)CNC(=O)/C=C/c2ccc(OC(=O)OCC)c(OC(=O)OCC)c2)CC1 [Compound 40]	–	–	22.6 ± 3.7	45.6 ± 11.0	40.9 ± 11.3
